From US7511144B2, “Reverse hydroxamic acid derivatives” (Kaken Pharmaceutical Co., Ltd., priority 2001, dated 2009)
Like-named read-outs stand apart in the source and are kept apart here.

Experiments:
Format in all cases: biochemical
[1] = molecular target: T1, TACE (Homo sapiens, UniProt P78536); test: TACE inhibition experiment (in vitro)
T1 construct: made in house; host or cells: mammalian cells or insect cells
Description: TACE inhibition experiments were conducted using TACE obtained as above as an enzyme and by measuring TACE activity in the presence or absence of a test substance using Nma (N-metylanthranilic acid)-[sequence]Dnp(dinitrophenyl)-D-Arg-NH2 being a fluorescent synthetic substrate which contains the sequence of cleavage site of membrane-bound TNF by TACE, as a substrate.
More specifically, 14 units of an enzyme solution (1 unit is defined as the amount of enzyme which degrades 1 pmol of the substrate per minute at 25° C.) which was prepared in 90 μL of assay buffer A (50 mM Tris-HCl buffer (pH 7.5) containing 200 mM sodium chloride, 5 mM calcium chloride, 10 μM zinc sulfate, 0.004% sodium azide and 2 mg/mL bovine serum albumin) and 90 μL of 20 μM fluorescent synthetic substrate prepared in assay buffer B (50 mM Tris-HCl buffer (pH 7.5) containing 200 mM sodium chloride, 5 mM calcium chloride, 10 μM zinc sulfate, 0.004% sodium azide and 0.05% PLURONIC F-68) are mixed and reacted for 2 hours at 37° C.

[2] = molecular target: T2, Human MMP1 (Homo sapiens, UniProt P03956); test: MMP1 inhibition experiment; conditions: read-out: IC50 value MMP-1
T2 construct: purchased Calbiochem 444208
T2 sequence (P03956 100-469): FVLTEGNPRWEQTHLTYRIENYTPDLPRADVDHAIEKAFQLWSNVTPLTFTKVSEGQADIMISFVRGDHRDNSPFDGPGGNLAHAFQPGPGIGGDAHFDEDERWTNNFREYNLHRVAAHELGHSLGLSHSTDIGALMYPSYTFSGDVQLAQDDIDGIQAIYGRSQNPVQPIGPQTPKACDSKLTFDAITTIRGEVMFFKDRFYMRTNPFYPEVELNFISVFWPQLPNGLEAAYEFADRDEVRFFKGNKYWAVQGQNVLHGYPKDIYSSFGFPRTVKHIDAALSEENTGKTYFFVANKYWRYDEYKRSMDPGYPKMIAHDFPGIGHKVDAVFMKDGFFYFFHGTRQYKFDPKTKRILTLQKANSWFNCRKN
Description: This enzyme solution in amount of 10 μL was diluted to 90 μL with the assay buffer A, which was added to 90 μL of 20 μM fluorescent substrate (Dnp-Pro-Cha(β-cyclohexylalanyl)-Gly-Cys(Me)-His-Ala-Lys(Nma)-NH2) prepared in the assay buffer B, followed by reaction for 5 hours at 37° C.

[3] = molecular target: T3, Human MMP2 (Homo sapiens, UniProt P08253); test: MMP2 inhibition experiment; conditions: concentration required for 50% inhibition of enzyme activity; read-out: IC50 value MMP-2
T3 construct: purchased Calbiochem 444213
T3 sequence (P08253 110-660): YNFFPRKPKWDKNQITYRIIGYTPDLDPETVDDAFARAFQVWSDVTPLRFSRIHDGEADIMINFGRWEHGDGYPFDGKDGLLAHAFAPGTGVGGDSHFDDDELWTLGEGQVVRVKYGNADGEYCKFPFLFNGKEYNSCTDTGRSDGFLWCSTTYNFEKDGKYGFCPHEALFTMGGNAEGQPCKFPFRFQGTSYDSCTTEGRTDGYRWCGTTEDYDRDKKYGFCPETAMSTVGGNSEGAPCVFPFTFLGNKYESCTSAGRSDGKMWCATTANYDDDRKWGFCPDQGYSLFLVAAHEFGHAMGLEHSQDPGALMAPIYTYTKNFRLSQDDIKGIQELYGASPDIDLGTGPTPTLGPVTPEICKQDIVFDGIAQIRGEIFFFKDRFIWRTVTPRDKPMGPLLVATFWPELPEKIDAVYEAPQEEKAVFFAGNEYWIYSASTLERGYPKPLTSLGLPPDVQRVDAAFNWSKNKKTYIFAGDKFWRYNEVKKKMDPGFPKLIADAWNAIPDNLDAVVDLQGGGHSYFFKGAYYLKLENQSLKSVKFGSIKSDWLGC
Description: This enzyme solution in amount of 10 μL was diluted to 90 μL with the assay buffer A, which was added to 90 μL of 20 μM fluorescent substrate (MOCAc((7-methoxycoumarin-4-yl)acetyl)-Pro-Leu-Gly-Leu-A2pr(Dnp)-Ala-Arg-NH2, Peptide Institute, Inc., #3163-v) prepared in the assay buffer B, followed by reaction for 5 hours at 37° C.

[4] = molecular target: T4, Human MMP3 (Homo sapiens, UniProt P08254); test: MMP3 inhibition experiment; conditions: concentration required for 50% inhibition of enzyme activity; read-out: IC50 value MMP-3
T4 construct: purchased Calbiochem 444217
T4 sequence (P08254 100-272 limits assumed): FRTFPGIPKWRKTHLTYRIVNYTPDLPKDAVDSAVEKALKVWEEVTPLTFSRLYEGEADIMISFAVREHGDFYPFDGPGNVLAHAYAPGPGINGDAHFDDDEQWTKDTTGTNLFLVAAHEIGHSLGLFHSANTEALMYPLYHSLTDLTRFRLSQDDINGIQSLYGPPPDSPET
Description: (§1) MMP inhibition experiment may be carried out using a fluorescent synthetic substrate according to, for example, the methods of Bickett et al. (D. Mark Bickett et al., Anal. Biochem., 1993, 212, 58-64) and Nagase et al. (H. Nagase et al., J. Biol. Chem., 1994, 269, 20952-20957). The methods of inhibition experiments carried out for various MMPs are described below.
Human MMP3 (Calbiochem #444217) in 90 μL (5 ng) prepared in the assay buffer A was added to 90 μL of 20 μM fluorescent substrate NFF-3(MOCAc-Arg-Pro-Lys-Pro-Val-Glu-Nva-Trp-Arg-Lys(Dnp)-NH2, Peptide Institute, Inc., #3168-v) prepared in the assay buffer B, followed by reaction for 5 hours at 37° C.

[5] = molecular target: T5, Human MMP9 (Homo sapiens, UniProt P14780); test: MMP9 inhibition experiment; conditions: read-out: IC50 value MMP-9
T5 construct: purchased Calbiochem 444231
T5 sequence (P14780 107-707 limits assumed): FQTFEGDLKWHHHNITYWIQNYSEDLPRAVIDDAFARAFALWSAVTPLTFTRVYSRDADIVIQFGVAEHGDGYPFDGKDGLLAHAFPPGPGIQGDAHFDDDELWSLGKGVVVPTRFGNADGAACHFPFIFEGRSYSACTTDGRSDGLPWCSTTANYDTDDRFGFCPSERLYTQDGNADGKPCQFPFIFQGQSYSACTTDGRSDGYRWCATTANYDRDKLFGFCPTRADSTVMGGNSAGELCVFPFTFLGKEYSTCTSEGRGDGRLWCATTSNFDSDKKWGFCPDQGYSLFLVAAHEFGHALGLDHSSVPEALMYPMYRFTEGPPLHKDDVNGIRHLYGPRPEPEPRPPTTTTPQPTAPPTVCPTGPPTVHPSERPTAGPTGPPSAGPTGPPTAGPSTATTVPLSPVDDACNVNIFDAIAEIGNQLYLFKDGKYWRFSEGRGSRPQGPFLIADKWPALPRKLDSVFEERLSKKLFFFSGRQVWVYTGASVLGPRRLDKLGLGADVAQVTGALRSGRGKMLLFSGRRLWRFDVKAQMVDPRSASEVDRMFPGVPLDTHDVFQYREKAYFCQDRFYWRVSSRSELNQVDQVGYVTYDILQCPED
Description: This enzyme solution in amount of 1 μL was diluted to 90 μL with the assay buffer A, which was added to 90 μL of 20 μM fluorescent substrate (Dnp-Pro-Cha-Gly-Cys(Me)-His-Ala-Lys(Nma)-NH2) prepared in the assay buffer B, followed by reaction for 4 hours at 37° C.

[6] = molecular target: T6, Human MMP13 (Homo sapiens, UniProt P45452); test: MMP13 inhibition experiment; conditions: concentration required for 50% inhibition of enzyme activity; read-out: IC50 value MMP-13
T6 construct: purchased Chemicon CC068
Description: Human MMP13 (Chemicon #CC068) in amount of 90 μL (200 ng) was activated by mixing with 10 μL of 10 mM APMA, followed by reaction for 1 hour at 37° C. This enzyme solution in amount of 0.6 μL was diluted to 90 μL with the assay buffer A, which was added to 90 μL of 20 μM fluorescent substrate (Dnp-Pro-Cha-Gly-Cys(Me)-His-Ala-Lys(Nma)-NH2) prepared in the assay buffer B, followed by reaction for 4 hours at 37° C.

[7] = molecular target: T7, Human MMP14 (Homo sapiens, UniProt P50281); test: MMP14 inhibition experiment; conditions: concentration required for 50% inhibition of enzyme activity; read-out: IC50 value MMP-14
T7 construct: purchased Biogenesis or Calbiochem 5980-1461 or 475935
Description: as §1
Human MMP14 (Biogenesis #5980-1461 or Calbiochem #475935) in amount of 90 μL (4 ng) prepared in the assay buffer A was added to 90 μL of 20 μM fluorescent substrate (Dnp-Pro-Cha-Gly-Cys(Me)-His-Ala-Lys(Nma)-NH2) prepared in the assay buffer B, followed by reaction for 5 hours at 37° C.

[8] = molecular target: T8, Human MMP17 (Homo sapiens, UniProt Q9ULZ9); test: MMP17 inhibition test; conditions: concentration required for 50% inhibition of enzyme activity; read-out: IC50 value MMP-17
T8 construct: purchased Calbiochem 475940
T8 sequence (Q9ULZ9 126-300 limits assumed): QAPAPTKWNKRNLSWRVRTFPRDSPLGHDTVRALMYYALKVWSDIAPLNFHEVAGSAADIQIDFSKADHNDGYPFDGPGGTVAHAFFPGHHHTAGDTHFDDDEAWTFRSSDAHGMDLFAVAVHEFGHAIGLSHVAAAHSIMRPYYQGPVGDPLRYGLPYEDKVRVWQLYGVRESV

[9] = concentration required for 50% inhibition of enzyme activity

T1 sequence (P78536 215-824): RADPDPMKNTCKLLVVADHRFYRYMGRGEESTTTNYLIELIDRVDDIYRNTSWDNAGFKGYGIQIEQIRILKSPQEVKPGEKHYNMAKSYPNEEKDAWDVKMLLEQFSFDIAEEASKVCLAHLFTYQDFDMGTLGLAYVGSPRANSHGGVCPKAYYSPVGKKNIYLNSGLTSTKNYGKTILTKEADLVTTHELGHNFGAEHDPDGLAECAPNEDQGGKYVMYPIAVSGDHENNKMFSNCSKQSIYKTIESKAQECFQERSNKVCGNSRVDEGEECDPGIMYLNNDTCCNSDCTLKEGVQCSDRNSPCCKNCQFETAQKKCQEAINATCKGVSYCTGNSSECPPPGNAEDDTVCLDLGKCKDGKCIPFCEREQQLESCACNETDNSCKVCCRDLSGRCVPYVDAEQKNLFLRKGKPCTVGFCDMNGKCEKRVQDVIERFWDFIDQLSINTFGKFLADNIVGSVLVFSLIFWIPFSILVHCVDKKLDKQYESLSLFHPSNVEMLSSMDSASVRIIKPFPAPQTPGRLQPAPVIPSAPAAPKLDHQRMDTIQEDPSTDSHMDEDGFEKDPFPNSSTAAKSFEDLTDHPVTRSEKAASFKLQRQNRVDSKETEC

Row | SMILES | IC50 [1] | IC50 [2] | IC50 [3] | IC50 [4] | IC50 [5] | IC50 [6] | IC50 [7] | IC50 [8] | IC50 [1, 9] | IC50 [5, 9]
1 | Cc1cc(Cl)cc(COc2ccc(S(=O)(=O)CC(C=C3CCC4(CC3)OCCO4)N(O)C=O)cc2)c1 (stereo not drawn) [Example I-103] | 0.5 µM | 60 µM | 38 µM | 30 µM | 38 µM | 25 µM | 33 µM | 40 µM |  | 
2 | Cc1cc(Cl)cc(COc2ccc(S(=O)(=O)CC(CC3CCC(=NO)CC3)N(O)C=O)cc2)c1 (stereo not drawn) [Example I-100] | 0.2 µM | 43 µM | 4 µM | 7 µM | 23 µM | 6 µM | 25 µM | 7 µM |  | 
3 | Cc1cc(COc2ccc(S(=O)(=O)CC(CC3CCC4(CC3)OCCO4)N(O)C=O)cc2)c2ccccc2n1 (stereo not drawn) [Example I-10] |  | 45 µM | 6 µM | 1.2 µM |  | 5 µM | 23 µM | 1.1 µM | 0.06 µM | 12 µM
4 | Cc1cc(COc2ccc(S(=O)(=O)CC(CC3CCC(=O)CC3)N(O)C=O)cc2)cc(C)n1 (stereo not drawn) [Example I-113] | 0.13 µM | 60 µM | 2 µM | 8 µM | 70 µM | 2.3 µM | 60 µM | 6 µM |  | 
5 | COc1cc(C)cc(COc2ccc(S(=O)(=O)CC(C=C3CCC4(CC3)OCCO4)N(O)C=O)cc2)c1 (stereo not drawn) [Example I-95] | 1.5 µM | > 100 µM | > 100 µM | > 100 µM | > 100 µM | > 100 µM | > 100 µM | > 100 µM |  | 
6 | Cc1cc(Cl)cc(COc2ccc(S(=O)(=O)CC(CC3CCC(=O)CC3)N(O)C=O)cc2)c1 (stereo not drawn) [Example I-101] | 0.12 µM | 40 µM | 2.3 µM | 7 µM | 20 µM | 3 µM | 20 µM | 5 µM |  | 
7 | Cc1cc(COc2ccc(S(=O)(=O)CC(C=C3CCC(=NO)CC3)N(O)C=O)cc2)cc(C)n1 (stereo not drawn) [Example I-111] | 0.05 µM | > 100 µM | 4.1 µM | 30 µM | > 100 µM | 8 µM | > 100 µM | 30 µM |  | 
8 | COc1cc(C)cc(COc2ccc(S(=O)(=O)CC(CC3CCC4(CC3)OCCO4)N(O)C=O)cc2)c1 (stereo not drawn) [Example I-93] | 0.3 µM | 60 µM | 10 µM | 15 µM | 30 µM | 12 µM | 33 µM | 20 µM |  | 
9 | Cc1cc(C)cc(COc2ccc(S(=O)(=O)CC(C=C3CCC4(CC3)OCCO4)N(O)C=O)cc2)c1 (stereo not drawn) [Example I-91] | 0.4 µM | > 100 µM | 43 µM | 35 µM | 33 µM | 35 µM | 40 µM | 40 µM |  | 
10 | Cc1cc(COc2ccc(S(=O)(=O)CC(C(Cl)=C3CCOCC3)N(O)C=O)cc2)c2ccccc2n1 (stereo not drawn) [Example I-19] | 0.0063 µM | > 100 µM | > 100 µM | 20 µM | > 100 µM | 70 µM | > 100 µM | 7 µM |  | 
11 | Cc1cc(COc2ccc(S(=O)(=O)CC(c3ccccc3C)N(O)C=O)cc2)c2ccccc2n1 (stereo not drawn) [Example I-23] | 0.005 µM | 60 µM | 30 µM | 3 µM | 50 µM | 15 µM | 33 µM | 2.1 µM |  | 
12 | Cc1cc(COc2ccc(S(=O)(=O)CC(C3CCC(=O)CC3)N(O)C=O)cc2)c2ccccc2n1 (stereo not drawn) [Example I-11, N-Hydroxy-N-{2-[4-(2-methylquinolin-4-ylmethoxy)benzenesulfonyl]-1-(4-oxocyclohexyl)ethyl}formamide] |  | 45 µM | 30 µM | 2 µM |  | 7 µM | 35 µM | 0.6 µM | 0.02 µM | 28 µM
